Where two headings read alike, the source gives them in different places. One block for each compound: values may come before it.
Assays:
Human M3 receptor = target: T1, Human M3 receptor (Homo sapiens, UniProt P20309); test: M3 Receptor radioligand binding assay; conditions: for Ki: calculated from IC50 by Cheng and Prusoff equation
T1 construct: purchased Perkin Elmer
Method: M3 Receptor Radioligand Binding Assay:
The assay is carried out in 96-well polypropylene plates in a volume of 250 μl. […] The final assay concentration of DMSO is 0.5% (v/v). The plates are sealed and incubated for 2 h at room temperature on an orbital shaker (slow speed). Membranes are harvested onto 96-well unifilter GF/C filter plates pre-treated with 0.5% polyethyleneimine (v/v), using a filter manifold, washed four times with 200 μl of assay buffer. The plates are dried before addition of 50 μl of microscint-0, sealed then read in a Trilux Microbeta scintillation counter. IC50 values are determined from competition curves using a non-linear curve fitting program. Ki values are calculated from IC50 values by the Cheng and Prusoff equation.

Human recombinant PDE4B2 = Human recombinant PDE4B2 (Homo sapiens, UniProt Q07343); test: PDE4B2 HTRF assay; assay type: biochemical
Chain of Human recombinant PDE4B2 (Q07343 1-564 isoform Q07343-2): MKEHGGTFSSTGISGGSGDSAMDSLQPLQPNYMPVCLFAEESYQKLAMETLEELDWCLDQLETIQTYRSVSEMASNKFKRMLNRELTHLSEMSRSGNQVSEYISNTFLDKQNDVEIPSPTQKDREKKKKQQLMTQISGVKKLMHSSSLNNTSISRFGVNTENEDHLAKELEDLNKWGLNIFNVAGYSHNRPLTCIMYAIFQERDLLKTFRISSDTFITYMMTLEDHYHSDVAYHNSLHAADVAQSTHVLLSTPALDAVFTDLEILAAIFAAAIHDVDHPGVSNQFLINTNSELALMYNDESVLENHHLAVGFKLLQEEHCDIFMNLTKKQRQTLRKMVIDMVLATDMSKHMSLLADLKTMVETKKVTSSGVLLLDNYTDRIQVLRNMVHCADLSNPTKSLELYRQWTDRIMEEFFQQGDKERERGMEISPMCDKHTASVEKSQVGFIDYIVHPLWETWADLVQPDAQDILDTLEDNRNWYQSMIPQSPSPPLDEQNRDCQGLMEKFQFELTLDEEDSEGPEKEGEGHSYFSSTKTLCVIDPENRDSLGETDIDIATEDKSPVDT
Method: PDE4B2 activity is detected using the LANCE Ultra cAMP homogeneous time resolved fluorescence resonance energy transfer (TR-FRET) assay from Perkin Elmer. The assay is based on the competition between the europium (Eu) chelate-labeled cAMP tracer and sample cAMP for binding sites on cAMP-specific monoclonal antibodies (mAb) labelled with the ULight™ dye. The assay is carried out in 384-well low volume plates in a volume of 10 μl. Human recombinant PDE4B2 (80 pM) is incubated for 2 h with 3 nM cAMP in buffer containing 1×HBSS, 5 mM HEPES, 3 mM MgCl2, 0.1% BSA, pH 7.4 with or without test compounds. The enzymatic reactions are efficiently stopped by the addition of 500 μM IBMX present in the combined Stop/Detection buffer containing europium (Eu) chelate-labeled cAMP tracer and cAMP-specific monoclonal antibodies (mAb) labelled with the ULight™ dye. […] IC50 values are determined from competition curves using a non-linear curve fitting program.

[1] = system: Cch-evoked bronchoconstriction; test: Bronchospasm, percentage of inhibition (Cch-induced bronchoconstriction in rats); assay type: in vivo, rat; conditions: for inhibition at 16 h: 16 h after intratracheal administration of the sub-maximal inhibition dose; for sub-maximal inhibition Dose [inhibition at 1 h]: dose producing about 80% inhibition of the bronchospasm after 1 h, intratracheal
Method: Protocol of Bronchospasm-Percentage of Inhibition Animals Male CD Sprague Dawley rats (220-250 g) were purchased from Charles River Laboratories Italy (Calco, Lecco). Prior to use animals were acclimated for at least 5 days to the local vivarium conditions (room temperature: 20-24° C.; relative humidity: 40-70%), having free access to standard rat chow and softened tap water. All the procedures were performed in animal operating rooms according to ethical guidelines for the conduct of animal research (D. L.vo 116/92). […] Animals were anaesthetized with Urethane (1.2 g/kg, i.p.) and a laryngoscope was moved forward into the mouth to visualize the trachea and guide the insertion of the tip of a custom made small diameter cannula directly into the trachea and located 1-2 mm above the bifurcation. […] The target concentration was obtained by dilution of the DMSO stock in saline. Test compounds were instilled locally into the trachea in a volume of 125 μl. Experimental Procedure In order to assess the residual inhibitory activity of test compounds at 1 to 16 hours after their administration, rats were surgically prepared. In order to assess the Cch-induced bronchoconstriction in rats, the infusion of physiological solution was stopped and the bronchospastic agent injected into the jugular vein using the same cannula. Soon after washing the cannula with saline to ensure the complete administration of the bronchoconstrictor agent, the saline infusion was started again. Body temperature was kept constant at 37° C. by a heated blanket. The trachea was cannulated and the lungs were ventilated artificially with a small animal constant volume ventilator (rodent ventilator mod. 7025, Ugo Basile, Comerio, Varese, Italy) at a frequency of 80 strokes/min and at a tidal volume of 2.5 ml/kg. To avoid spontaneous breathing, the animals were injected intravenously (i.v.) with pancuronium bromide (2 mg/kg). Bronchoconstriction was induced by the i.v. injection of Cch 50 μg/kg. In control experiments, repeated injections of this dose produced reproducible short-lasting (1-2 min duration) bronchospasms. Bronchoconstriction, quantified as a reduction of tidal volume, was evaluated according to the method described by Konzett & Roessler in Konzett H. and Roessler R. (1940). Versuchanornungzu untersuchungen […]. Arch. Exp. Path. Pharmak.; 195:71-74, which is incorporated herein by reference in its entirety. Systemic blood pressure and changes in airway resistance were monitored with a digital pressure transducer connected to a bridge amplifier (PowerLab; Ugo Basile, Italy) and recorded using Chart 5 software (Ugo Basile, Italy). […] The effect of test compounds was expressed as % inhibition of Cch-evoked bronchoconstriction in time-matched, vehicle-treated, animals (controls).

COPD patients = conditions: cited from earlier work
[2] = patients with severe disease, frequent exacerbations and mucus hypersecretion

T1 sequence (P20309 whole entry): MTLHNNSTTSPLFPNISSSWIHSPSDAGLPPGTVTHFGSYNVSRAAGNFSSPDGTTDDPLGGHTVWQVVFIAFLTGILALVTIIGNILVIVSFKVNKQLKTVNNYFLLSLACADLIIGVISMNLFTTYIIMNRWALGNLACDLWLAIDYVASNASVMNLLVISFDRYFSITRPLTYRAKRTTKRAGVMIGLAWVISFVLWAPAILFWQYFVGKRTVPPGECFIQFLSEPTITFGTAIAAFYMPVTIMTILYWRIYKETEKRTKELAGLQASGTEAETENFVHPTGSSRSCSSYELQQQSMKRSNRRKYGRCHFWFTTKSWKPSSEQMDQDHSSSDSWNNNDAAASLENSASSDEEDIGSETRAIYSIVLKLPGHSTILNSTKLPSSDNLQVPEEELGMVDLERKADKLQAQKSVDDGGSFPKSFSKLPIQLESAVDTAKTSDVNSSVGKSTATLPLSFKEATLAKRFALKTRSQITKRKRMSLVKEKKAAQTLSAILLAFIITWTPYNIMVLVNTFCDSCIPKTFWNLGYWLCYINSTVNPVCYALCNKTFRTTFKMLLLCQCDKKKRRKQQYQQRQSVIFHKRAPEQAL

SMILES: COc1ccc([C@H](Cc2c(Cl)c[n+]([O-])cc2Cl)OC(=O)c2cccc(CNC(C(=O)OCC3CCN(C)CC3)c3ccccc3)c2)cc1OC (mixture of isomers) [Example 1, [(1S)-2-(3,5-dichloro-1-oxido-pyridin-1-ium-4-yl)-1-(3,4-dimethoxyphenyl)ethyl] 3-[[[2-[(1-methyl-4-piperidyl)methoxy]-2-oxo-1-phenyl-ethyl]amino]methyl]benzoate]
- IC50 (Human M3 receptor; read-out: M3 IC50 activity): 1 to 10 nM
- IC50 (Human recombinant PDE4B2): < 1 nM

SMILES: COc1ccc([C@H](Cc2c(Cl)c[n+]([O-])cc2Cl)OC(=O)c2ccc(CNC(C(=O)OCC3CCN(C)CC3)c3ccccc3)cc2)cc1OC (single isomer, unassigned) [Example 2]
- IC50 (Human M3 receptor; read-out: M3 IC50 activity): 1 to 10 nM
- IC50 (Human recombinant PDE4B2): 1 to 10 nM

SMILES: COc1ccc([C@H](Cc2c(Cl)c[n+]([O-])cc2Cl)OC(=O)c2ccc(CNC(C(=O)OCC3CCN(C)CC3)c3cccc(O)c3)cc2)cc1OC (stereo partly drawn) [Example 11, [(1S)-2-(3,5-dichloro-1-oxido-pyridin-1-ium-4-yl)-1-(3,4-dimethoxyphenyl)ethyl] 4-[[[1-(3-hydroxyphenyl)-2-[(1-methyl-4-piperidyl)-methoxy]-2-oxo-ethyl]amino]methyl]benzoate]
- IC50 (Human M3 receptor; read-out: M3 IC50 activity): 1 to 10 nM
- IC50 (Human recombinant PDE4B2): 1 to 10 nM

SMILES: O=C(Nc1c(Cl)cncc1Cl)c1ccc(OC(F)F)c(OCC2CC2)c1 [roflumilast]
- reduction of numbers of neutrophils in sputum (COPD patients; COPD patients, oral, over four weeks): 36%
- improvement of FEV 1 (COPD patients; [2]): approximately 50 mL
- reduction of exacerbation (COPD patients; [2]): about 15%

Second part, led by results:

- Ki (Human M3 receptor): 0.09 nM
- IC50 (Human M3 receptor; read-out: M3 IC50): 0.17 nM
SMILES: COc1ccc([C@H](Cc2c(Cl)c[n+]([O-])cc2Cl)OC(=O)c2ccc(CNC(C(=O)OC3CCN(C)CC3)c3ccccc3)cc2)cc1OC (single isomer, unassigned) [Example 7C, reference compound]
- inhibition at 16 h [1]: <10%
- sub-maximal inhibition Dose [inhibition at 1 h] [1]: 3 nmol/kg

- Ki (Human M3 receptor): 0.45 nM
- IC50 (Human M3 receptor; read-out: M3 IC50): 0.9 nM
- IC50 (Human M3 receptor; read-out: M3 IC50 activity): < 1 nM
- IC50 (Human recombinant PDE4B2): 1 to 10 nM
SMILES: COc1ccc([C@H](Cc2c(Cl)c[n+]([O-])cc2Cl)OC(=O)c2ccc(CNC(C(=O)OCC3CCN(C)CC3)c3ccccc3)cc2)cc1OC (single isomer, unassigned) [Example 7]
- inhibition at 16 h [1]: >90%
- sub-maximal inhibition Dose [inhibition at 1 h] [1]: 30 nmol/kg

- IC50 (Human M3 receptor; read-out: M3 IC50 activity): 1 to 10 nM
- IC50 (Human recombinant PDE4B2): 1 to 10 nM
SMILES: COc1ccc([C@H](Cc2c(Cl)c[n+]([O-])cc2Cl)OC(=O)c2cccc(CNC(C(=O)OCC3CCN(C)CC3)c3ccccc3)c2)cc1OC (stereo partly drawn) [Example 5, [(1S)-2-(3,5-dichloro-1-oxido-pyridin-1-ium-4-yl)-1-(3,4-dimethoxyphenyl)ethyl] 3-[[[2-[(1-methyl-4-piperidyl)-methoxy]-2-oxo-1-phenyl-ethyl]amino]methyl]benzoate]

Source: US9597323B2, “Aminoester derivatives” (CHIESI FARMACEUTICI S.p.A., priority 2015, dated 2017)
